# Laboratory results from patent US20240270741A1 (Cogent Biosciences, Inc., priority 2023, published 2024).
# Target: FGFR2 (Homo sapiens, UniProt P21802)
# Experiment: FGFR wild type enzyme assay (HTRF KinEASE-TK), FGFR2
# Conditions: Enz FGFR2 (nM), FGFR2 wild type enzyme assay
# Description: Activity against FGFR wild type and mutant enzymes were determined in biochemical assays using purified intracellular domains of the respective isoforms using HTRF KinEASE-TK assay technology from CisBio, now PerkinElmer. (Catalogue number 62TK0PEC). Briefly test compounds were tested in 11 point 1:3 serial dilutions, typical final concentration ranges from 10,000 nM to 0.17 nM. Test compounds were dissolved in DMSO and added to assay plates using acoustic transfer. Enzyme was pre-incubated with test compound for 30 minutes and the assay was initiated by addition of ATP and TK-peptide substrate. After 60 minutes at room temperature the reaction was quenched with detection reagent and incubated for an additional 60 minutes at room temperature. The plates were read using a multimode reader and the emission ratio of 665 nm to 615 nm was determined. This ratio was converted to percent of control (POC). [1-(high control-sample signal)/(high control-low control)]*100. Wells without compound were used to determine high control values and wells without enzyme were used to determine low control values. The POC values were fit using a four-parameter logistic model and the value where the fit curve was equal to 50 POC was reported as the IC50 using the Signals Vitro Vivo software package (PerkinElmer). Final assay conditions were: 50 mM HEPES pH7.5, 10 mM MgCl2, 1 mM EDTA, 0.01% Brij-35, 2 mM MnCl2, 1 mM DTT, and 0.5 uM TK-peptide.
# Chain of FGFR2 (P21802 399-821 limits assumed): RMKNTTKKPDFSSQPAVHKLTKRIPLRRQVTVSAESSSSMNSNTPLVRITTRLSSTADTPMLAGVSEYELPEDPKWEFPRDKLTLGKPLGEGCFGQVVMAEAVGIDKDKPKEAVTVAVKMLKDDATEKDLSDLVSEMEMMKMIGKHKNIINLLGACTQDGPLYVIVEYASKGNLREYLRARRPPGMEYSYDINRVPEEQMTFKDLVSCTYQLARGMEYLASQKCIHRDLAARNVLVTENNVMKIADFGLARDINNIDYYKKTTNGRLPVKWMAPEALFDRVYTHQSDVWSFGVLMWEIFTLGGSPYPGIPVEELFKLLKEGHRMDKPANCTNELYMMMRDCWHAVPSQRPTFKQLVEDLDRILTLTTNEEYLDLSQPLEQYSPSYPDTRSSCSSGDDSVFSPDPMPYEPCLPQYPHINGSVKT
row,IC50,Structure (SMILES)
1,2.5 nM,"Cc1c(-c2cc(Sc3ccc(F)cc3C#N)c3c(C#N)cnn3c2)cnn1C1CCN(C[C@H](C)O)CC1 [Example 354, (S)-4-((2-cyano-4-fluorophenyl)thio)-6-(1-(1-(2-hydroxypropyl)piperidin-4-yl)-5-methyl-1H-pyrazol-4-yl)pyrazolo[1,5-a]pyridine-3-carbonitrile]"
2,2 nM,"Cc1cccc(Sc2cc(-c3cnn(C4CCN(C)CC4)c3C)cn3ncc(C#N)c23)c1C#N [Example 355, 4-((2-cyano-3-methylphenyl)thio)-6-(5-methyl-1-(1-methylpiperidin-4-yl)-1H-pyrazol-4-yl)pyrazolo[1,5-a]pyridine-3-carbonitrile]"
3,10 nM,"Cc1c(-c2cc(Sc3cccc(F)c3C#N)c3c(C#N)cnn3c2)cnn1C1CCN(C)CC1 [Example 356, 4-((2-cyano-3-fluorophenyl)thio)-6-(5-methyl-1-(1-methylpiperidin-4-yl)-1H-pyrazol-4-yl)pyrazolo[1,5-a]pyridine-3-carbonitrile]"
4,2 nM,"Cc1ccc(C#N)c(Sc2cc(-c3cnn(C4CCN(C)CC4)c3C)cn3ncc(C#N)c23)c1 [Example 357, 4-((2-cyano-5-methylphenyl)thio)-6-(5-methyl-1-(1-methylpiperidin-4-yl)-1H-pyrazol-4-yl)pyrazolo[1,5-a]pyridine-3-carbonitrile]"
5,2 nM,"Cc1c(-c2cc(Sc3cc(Cl)ccc3C#N)c3c(C#N)cnn3c2)cnn1C1CCN(C)CC1 [Example 358, 4-((5-chloro-2-cyanophenyl)thio)-6-(5-methyl-1-(1-methylpiperidin-4-yl)-1H-pyrazol-4-yl)pyrazolo[1,5-a]pyridine-3-carbonitrile]"
6,1.5 nM,"Cc1c(-c2cc(Sc3cc(F)ccc3C#N)c3c(C#N)cnn3c2)cnn1C1CCN(C)CC1 [Example 359, 4-((2-cyano-5-fluorophenyl)thio)-6-(5-methyl-1-(1-methylpiperidin-4-yl)-1H-pyrazol-4-yl)pyrazolo[1,5-a]pyridine-3-carbonitrile]"
7,2 nM,"Cc1c(-c2cc(Sc3ccc(F)cc3C#N)c3c(C#N)cnn3c2)cnn1C1CCN(C(=O)[C@H](C)O)CC1 [Example 360, (S)-4-((2-cyano-4-fluorophenyl)thio)-6-(1-(1-(2-hydroxypropanoyl)piperidin-4-yl)-5-methyl-1H-pyrazol-4-yl)pyrazolo[1,5-a]pyridine-3-carbonitrile]"
8,2 nM,"COC(=O)N1CCC(n2ncc(-c3cc(Sc4ccc(F)cc4C#N)c4c(C#N)cnn4c3)c2C)CC1 [Example 361, methyl 4-(4-(3-cyano-4-((2-cyano-4-fluorophenyl)thio)pyrazolo [1,5-a]pyridin-6-yl)-5-methyl-1H-pyrazol-1-yl)piperidine-1-carboxylate]"
9,1 nM,"COC(=O)N[C@H]1CC[C@@H](n2ncc(-c3cc(Sc4ccc(F)cc4C#N)c4c(C#N)cnn4c3)c2C)CC1 [Example 362, methyl ((1s,4s)-4-(4-(3-cyano-4-((2-cyano-4-fluorophenyl)thio)pyrazolo [1,5-a]pyridin-6-yl)-5-methyl-1H-pyrazol-1-yl)cyclohexyl)carbamate]"
10,2 nM,"COC(=O)N1CCC[C@H](n2ncc(-c3cc(Sc4ccc(F)cc4C#N)c4c(C#N)cnn4c3)c2C)C1 [Example 363, methyl (S)-3-(4-(3-cyano-4-((2-cyano-4-fluorophenyl)thio)pyrazolo [1,5-a]pyridin-6-yl)-5-methyl-1H-pyrazol-1-yl)piperidine-1-carboxylate]"
11,3 nM,"COC(=O)N[C@]1(C)CC[C@H](n2ncc(-c3cc(Sc4ccc(F)cc4C#N)c4c(C#N)cnn4c3)c2C)CC1 [Example 364, methyl ((1s,4s)-4-(4-(3-cyano-4-((2-cyano-4-fluorophenyl)thio)pyrazolo [1,5-a]pyridin-6-yl)-5-methyl-1H-pyrazol-1-yl)-1-methylcyclohexyl)carba-mate]"
12,2 nM,"COC(=O)N1[C@@H]2CC[C@H]1C[C@H](n1ncc(-c3cc(Sc4ccc(F)cc4C#N)c4c(C#N)cnn4c3)c1C)C2 [Example 365, methyl (1R,3s,5S)-3-(4-(3-cyano-4-((2-cyano-4-fluorophenyl)thio)pyrazolo [1,5-a]pyridin-6-yl)-5-methyl-1H-pyrazol-1-yl)-8-azabicyclo[3.2.1]octane-8-carboxylate]"
13,0.6 nM,"Cc1c(-c2cc(Sc3ccc(F)cc3C#N)c3c(C#N)cnn3c2)cnn1[C@@H]1C[C@H]2CC[C@@H](C1)N2 [Example 366, 6-(1-((1R,3s,5S)-8-azabicyclo[3.2.1]octan-3-yl)-5-methyl-1H-pyrazol-4-yl)-4-((2-cyano-4-fluorophenyl)thio)pyrazolo [1,5-a]pyridine-3-carbonitrile]"
14,0.4 nM,"N#Cc1ccccc1Sc1cc(-c2cnn(C3CCS(=O)(=O)CC3)c2)cn2ncc(C#N)c12 [Example 367, 4-((2-cyanophenyl)thio)-6-(1-(1,1-dioxidotetrahydro-2H-thiopyran-4-yl)-1H-pyrazol-4-yl)pyrazolo[1,5-a]pyridine-3-carbonitrile]"
15,0.4 nM,"CC(=O)N[C@@H]1CC[C@@H](n2cc(-c3cc(Sc4ccccc4C#N)c4c(C#N)cnn4c3)cn2)C1 [Example 368, N-((1R,3R)-3-(4-(3-cyano-4-((2-cyanophenyl)thio)pyrazolo [1,5-a]pyridin-6-yl)-1H-pyrazol-1-yl)cyclopentyl)acetamide]"
16,5 nM,"Cc1c(-c2cc(Sc3ccc(Cl)cc3C#N)c3c(C#N)cnn3c2)cnn1C1CCN(C)CC1 [Example 369, 4-((4-chloro-2-cyanophenyl)thio)-6-(5-methyl-1-(1-methylpiperidin-4-yl)-1H-pyrazol-4-yl)pyrazolo[1,5-a]pyridine-3-carbonitrile]"
17,35 nM,"CN1CCC(n2ncc(-c3cc(Sc4ncccc4F)c4c(C#N)cnn4c3)c2C#N)CC1 [Example 370, 6-(5-cyano-1-(1-methylpiperidin-4-yl)-1H-pyrazol-4-yl)-4-((3-fluoropyridin-2-yl)thio)pyrazolo[1,5-a]pyridine-3-carbonitrile]"
18,5 nM,"Cc1cc(Sc2cc(-c3cnn(C4CCN(C)CC4)c3C)cn3ncc(C#N)c23)c(C#N)cc1F [Example 371, 4-((2-cyano-4-fluoro-5-methylphenyl)thio)-6-(5-methyl-1-(1-methylpiperidin-4-yl)-1H-pyrazol-4-yl)pyrazolo[1,5-a]pyridine-3-carbonitrile]"
19,1 nM,"Cc1c(-c2cc(Sc3ccc(F)cc3C#N)c3c(C#N)cnn3c2)cnn1[C@@H]1C[C@H]2CC[C@@H](C1)N2C(=O)CO [Example 372, 4-((2-cyano-4-fluorophenyl)thio)-6-(1-((1R,3s,5S)-8-(2-hydroxyacetyl)-8-azabicyclo[3.2.1]octan-3-yl)-5-methyl-1H-pyrazol-4-yl)pyrazolo[1,5-a]pyridine-3-carbonitrile]"
20,2 nM,"CC(=O)N1[C@@H]2CC[C@H]1C[C@H](n1ncc(-c3cc(Sc4ccc(F)cc4C#N)c4c(C#N)cnn4c3)c1C)C2 [Example 373, 6-(1-((1R,3s,5S)-8-acetyl-8-azabicyclo[3.2.1]octan-3-yl)-5-methyl-1H-pyrazol-4-yl)-4-((2-cyano-4-fluorophenyl)thio)pyrazolo [1,5-a]pyridine-3-carbonitrile]"
21,1 nM,"Cc1noc(Cn2cc(-c3cc(Sc4ccccc4C#N)c4c(C#N)cnn4c3)cn2)n1 [Example 374, 4-((2-cyanophenyl)thio)-6-(1-((3-methyl-1,2,4-oxadiazol-5-yl)methyl)-1H-pyrazol-4-yl)pyrazolo[1,5-a]pyridine-3-carbonitrile]"
22,0.6 nM,"Cn1ccc(Cn2cc(-c3cc(Sc4ccccc4C#N)c4c(C#N)cnn4c3)cn2)n1 [Example 375, 4-((2-cyanophenyl)thio)-6-(1-((1-methyl-1H-pyrazol-3-yl)methyl)-1H-pyrazol-4-yl)pyrazolo[1,5-a]pyridine-3-carbonitrile]"
23,5.5 nM,"Cc1c(-c2cc(Sc3ncc(Cl)cc3F)c3c(C#N)cnn3c2)cnn1C1CCN(C)CC1 [Example 376, 4-((5-chloro-3-fluoropyridin-2-yl)thio)-6-(5-methyl-1-(1-methylpiperidin-4-yl)-1H-pyrazol-4-yl)pyrazolo[1,5-a]pryidine-3-carbonitrile]"
24,11 nM,"Cc1cnc(Sc2cc(-c3cnn(C4CCN(C)CC4)c3C)cn3ncc(C#N)c23)c(F)c1 [Example 377, 4-((3-fluoro-5-methylpyridin-2-yl)thio)-6-(5-methyl-1-(1-methylpiperidin-4-yl)-1H-pyrazol-4-yl)pyrazolo[1,5-a]pyridine-3-carbonitrile]"
25,4 nM,"Cc1ccc(Sc2cc(-c3cnn(C4CCN(C)CC4)c3C)cn3ncc(C#N)c23)c(C#N)c1 [Example 378, 4-((2-cyano-4-methylphenyl)thio)-6-(5-methyl-1-(1-methylpiperidin-4-yl)-1H-pyrazol-4-yl)pyrazolo[1,5-a]pyridine-3-carbonitrile]"
26,25 nM,"COc1ccc(Sc2cc(-c3cnn(C4CCN(C)CC4)c3C)cn3ncc(C#N)c23)c(C#N)c1 [Example 379, 4-((2-cyano-4-methoxyphenyl)thio)-6-(5-methyl-1-(1-methylpiperidin-4-yl)-1H-pyrazol-4-yl)pyrazolo[1,5-a]pyridine-3-carbonitrile]"
27,1 nM,"Cc1c(-c2cc(Sc3ccc(F)cc3C#N)c3c(C#N)cnn3c2)cnn1C1CCN([C@@H](C)CO)CC1 [Example 380, (S)-4-((2-cyano-4-fluorophenyl)thio)-6-(1-(1-(1-hydroxypropan-2-yl)piperidin-4-yl)-5-methyl-1H-pyrazol-4-yl)pyrazolo[1,5-a]pyridine-3-carbonitrile]"
28,1 nM,"Cc1c(-c2cc(Sc3ccc(F)cc3C#N)c3c(C#N)cnn3c2)cnn1C1CCN([C@H](C)CO)CC1 [Example 381, (R)-4-((2-cyano-4-fluorophenyl)thio)-6-(1-(1-(1-hydroxypropan-2-yl)piperidin-4-yl)-5-methyl-1H-pyrazol-4-yl)pyrazolo[1,5-a]pyridine-3-carbonitrile]"
29,14 nM,"CC(=O)N1CCC(n2ncc(-c3cc(Sc4nccc(C)c4F)c4c(C#N)cnn4c3)c2C)CC1 [Example 382, 6-(1-(1-acetylpiperidin-4-yl)-5-methyl-1H-pyrazol-4-yl)-4-((3-fluoro-4-methylpyridin-2-yl)thio)pyrazolo[1,5-a]pyridine-3-carbonitrile]"
